Assay results reported in patent EP0497299A1, “Decarestrictine and related compounds, process for their preparation and use” (HOECHST AKTIENGESELLSCHAFT, priority 1991, dated 1992).

Tested on: Cholesterinbiosynthese
Experiment: Inhibition of cholesterol biosynthesis from 14C-acetate in HEP-G2 liver cell culture
Type: cell-based
Settings: Homo sapiens, HepG2, 3 h, HEP-G2-Zellen; for inhibition at 0.01 µM: Konzentration von 10⁻⁸ mol/l, read-out: Hemmung der Cholesterinbiosynthese; for IC50: (¹⁴C)Natriumacetat, standard preparations, read-out: IC₅₀
From the text: 2. Die biologische Wirksamkeit der Verbindungen als Inhibitor an der Cholesterinbiosynthese läßt sich in vitro in Leberzellkulturen nachweisen.
Monolayer von HEP-G2-Zellen in lipoproteinfreiem Nährmedium werden mit entsprechenden Konzentrationen der zu prüfenden Substanzen der allgemeinen Formel I eine Stunde vorinkubiert. Nach Zugabe der ¹⁴C-markierten Biosynthesevorstufe (¹⁴C)Natriumacetat wird die Inkubation für 3 Stunden fortgesetzt. Danach wird ein Teil der Zellen alkalisch verseift, bei vorheriger Zugabe eines internen Standards von ³H-Cholesterin. Die Lipide der verseiften Zellen werden mit einem Gemisch aus Chloroform-Methanol extrahiert. Dieses Lipidgemisch wird nach Zusatz von Trägercholesterin präparativ dünnschichtchromatographisch aufgetrennt, die Cholesterinbande nach Anfärbung isoliert und die aus dem ¹⁴C-Precursor gebildete Menge ¹⁴C-Cholesterin szintigraphisch bestimmt. In einem aliquoten Teil der Zellen wurde Zellprotein bestimmt, so daß die in der Zelleinheit pro mg Zellprotein aus ¹⁴C-Präkusor gebildete Menge ¹⁴C-Cholesterins berechnet werden kann. Zum Vergleich für die Hemmwirkung eines zugesetzten Prüfpräparates dient die Kontrolle, so daß direkt die Hemmung der Cholesterinbiosynthese bei einer bestimmten molaren Konzentration des Prüfpräparates im Medium angegeben werden kann. In aliquoten Anteilen der Zellkultur wird die Intaktheit der Zellkultur und die fehlende Zellschädigung durch Präparateeinwirkung morphologisch (Lichtmikroskopie) beurteilt und biochemisch durch Bestimmung der Lactat-Dehydrogenase-Abgabe ins Inkubationsmedium gemessen.

Row | Compound | inhibition at 0.01 µM [%] | IC50 [nM]
1 | COC(=O)C=C1CC(O)C(C(O)CC(C)O)O1 (stereo not shown) [Formel 1.5] | 60 | 
2 | COC(=O)CC1CC(O)C(C(O)CC(C)O)O1 (stereo not shown) [Formel 1.4] | 38 | 
3 | CC[C@H](C)C(=O)O[C@H]1C[C@@H](C)C=C2C=C[C@H](C)[C@H](CC[C@@H]3C[C@@H](O)CC(=O)O3)[C@H]21 [Lovastatin] |  | 23
4 | C[C@H](CCCC(C)(C)O)[C@H]1CC[C@H]2[C@@H]3CC=C4C[C@@H](O)CC[C@]4(C)[C@H]3CC[C@]12C [25-Hydroxycholesterin] |  | 230
